# According to ChEMBL document CHEMBL1201862, “PubChem BioAssay data set” (2004):
#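 Test compounds were applied to cells in 96-well plates for 48 hours at 5 doses. GI50 is the concentration that inhibits growth by half.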 The source made the active and inactive calls. Rule as the data show it: active = GI50 up to about 1.1 µM and inactive = higher.
# Assays:
# Assay in all cases: inhibition of tumour cell growth, NCI panel, 48 h
# OVCAR-3 = test system: OVCAR-3
# U-251 = test system: U-251
# SK-MEL-5 = test system: SK-MEL-5
# OVCAR-5 = test system: OVCAR-5
# LXFL 529 = test system: LXFL 529
# RPMI-8226 = test system: RPMI-8226
# IGROV-1 = test system: IGROV-1
# Malme-3M = test system: Malme-3M
# EKVX = test system: EKVX
# K562 = test system: K562
# LOX IMVI = test system: LOX IMVI
# UACC-62 = test system: UACC-62
# HOP-92 = test system: HOP-92
# A498 = test system: A498
# SNB-75 = test system: SNB-75
# KM-20L2 = test system: KM-20L2
# 786-0 = test system: 786-0
# HCT-15 = test system: HCT-15
# NCI-H23 = test system: NCI-H23
# CAKI-1 = test system: CAKI-1
# M14 = test system: M14
# HCC 2998 = test system: HCC 2998
# SNB-19 = test system: SNB-19
# SW-620 = test system: SW-620
# HL-60 = test system: HL-60
# XF498 = test system: XF498
# SF-295 = test system: SF-295
# RXF 393 = test system: RXF 393
# DLD-1 = test system: DLD-1
# NCI-H522 = test system: NCI-H522
# M19-MEL = test system: M19-MEL
# DMS-273 = test system: DMS-273
# TK-10 = test system: TK-10
# SF-539 = test system: SF-539
# NCI-H226 = test system: NCI-H226
# SF-268 = test system: SF-268
# DMS-114 = test system: DMS-114
# OVCAR-8 = test system: OVCAR-8
# SN12C = test system: SN12C
# ACHN = test system: ACHN
# UACC-257 = test system: UACC-257
# COLO 205 = test system: COLO 205
# CCRF-CEM = test system: CCRF-CEM
# HOP-62 = test system: HOP-62
# KM12 = test system: KM12
# RXF 631 = test system: RXF 631
# SK-OV-3 = test system: SK-OV-3
# OVCAR-4 = test system: OVCAR-4
# HCT-116 = test system: HCT-116
# UO-31 = test system: UO-31
# HT-29 = test system: HT-29
# A549 = test system: A549
# SNB-78 = test system: SNB-78
# SK-MEL-28 = test system: SK-MEL-28
# NCI-H460 = test system: NCI-H460
# MOLT-4 = test system: MOLT-4
# HOP-18 = test system: HOP-18
# SR = test system: SR
# SK-MEL-2 = test system: SK-MEL-2
# Hs-578T = test system: Hs-578T
# NCI/ADR-RES = test system: NCI/ADR-RES
# MDA-MB-435 = test system: MDA-MB-435
# PC-3 = test system: PC-3
# MDA-MB-231 = test system: MDA-MB-231
# MDA-N = test system: MDA-N
# MCF7 = test system: MCF7
# T47D = test system: T47D
# BT-549 = test system: BT-549
# DU-145 = test system: DU-145
structure (smiles),measurement,setting,value
C[N+](C)(C)C1CC([N+](C)(C)C)C2c3ccccc3C21 (stereo not given),GI50,OVCAR-3,> 100 µM (inactive)
same,GI50,U-251,> 100 µM (inactive)
same,GI50,SK-MEL-5,> 100 µM (inactive)
same,GI50,OVCAR-5,> 100 µM (inactive)
same,GI50,LXFL 529,> 100 µM (inactive)
same,GI50,RPMI-8226,> 100 µM (inactive)
same,GI50,IGROV-1,> 100 µM (inactive)
same,GI50,Malme-3M,> 100 µM (inactive)
same,GI50,EKVX,> 100 µM (inactive)
same,GI50,K562,> 100 µM (inactive)
same,GI50,LOX IMVI,> 100 µM (inactive)
same,GI50,UACC-62,> 100 µM (inactive)
same,GI50,HOP-92,> 100 µM (inactive)
same,GI50,A498,> 100 µM (inactive)
same,GI50,SNB-75,> 100 µM (inactive)
same,GI50,KM-20L2,> 100 µM (inactive)
same,GI50,786-0,> 100 µM (inactive)
same,GI50,HCT-15,> 100 µM
same,GI50,NCI-H23,> 100 µM (inactive)
same,GI50,CAKI-1,> 100 µM (inactive)
same,GI50,M14,> 100 µM (inactive)
same,GI50,HCC 2998,> 100 µM (inactive)
same,GI50,SNB-19,> 100 µM (inactive)
same,GI50,SW-620,> 100 µM (inactive)
same,GI50,HL-60,> 100 µM (inactive)
same,GI50,XF498,> 100 µM (inactive)
same,GI50,SF-295,> 100 µM (inactive)
same,GI50,RXF 393,> 100 µM (inactive)
same,GI50,DLD-1,> 100 µM (inactive)
same,GI50,NCI-H522,> 100 µM (inactive)
same,GI50,M19-MEL,> 100 µM (inactive)
same,GI50,DMS-273,> 100 µM (inactive)
same,GI50,TK-10,> 100 µM (inactive)
same,GI50,SF-539,> 100 µM (inactive)
same,GI50,NCI-H226,> 100 µM (inactive)
same,GI50,SF-268,> 100 µM (inactive)
same,GI50,DMS-114,> 100 µM (inactive)
same,GI50,OVCAR-8,> 100 µM (inactive)
same,GI50,SN12C,> 100 µM (inactive)
same,GI50,ACHN,> 100 µM (inactive)
same,GI50,UACC-257,> 100 µM (inactive)
same,GI50,COLO 205,> 100 µM (inactive)
same,GI50,CCRF-CEM,> 100 µM (inactive)
same,GI50,HOP-62,> 100 µM (inactive)
same,GI50,KM12,> 100 µM (inactive)
same,GI50,RXF 631,> 100 µM (inactive)
same,GI50,SK-OV-3,> 100 µM (inactive)
same,GI50,OVCAR-4,> 100 µM (inactive)
same,GI50,HCT-116,> 100 µM (inactive)
same,GI50,UO-31,> 100 µM (inactive)
same,GI50,HT-29,> 100 µM (inactive)
same,GI50,A549,> 100 µM (inactive)
same,GI50,SNB-78,> 100 µM (inactive)
same,GI50,SK-MEL-28,> 100 µM (inactive)
same,GI50,NCI-H460,> 100 µM (inactive)
Cc1nc2sccn2c1C(=O)NN,GI50,OVCAR-3,> 100 µM (inactive)
same,GI50,U-251,> 100 µM (inactive)
same,GI50,SK-MEL-5,> 100 µM (inactive)
same,GI50,OVCAR-5,> 100 µM (inactive)
same,GI50,LXFL 529,> 100 µM (inactive)
same,GI50,RPMI-8226,> 100 µM (inactive)
same,GI50,IGROV-1,> 100 µM (inactive)
same,GI50,Malme-3M,> 100 µM (inactive)
same,GI50,MOLT-4,> 100 µM (inactive)
same,GI50,EKVX,> 100 µM (inactive)
same,GI50,K562,> 100 µM (inactive)
same,GI50,HOP-18,21.6 µM (inactive)
same,GI50,LOX IMVI,> 100 µM (inactive)
same,GI50,UACC-62,> 100 µM (inactive)
same,GI50,HOP-92,> 100 µM (inactive)
same,GI50,KM-20L2,> 100 µM (inactive)
same,GI50,786-0,> 100 µM (inactive)
same,GI50,HCT-15,> 100 µM
same,GI50,NCI-H23,> 100 µM (inactive)
same,GI50,CAKI-1,> 100 µM (inactive)
same,GI50,HCC 2998,> 100 µM (inactive)
same,GI50,SNB-19,> 100 µM (inactive)
same,GI50,SR,> 100 µM (inactive)
same,GI50,SW-620,> 100 µM (inactive)
same,GI50,HL-60,> 100 µM (inactive)
same,GI50,XF498,> 100 µM (inactive)
same,GI50,SF-295,> 100 µM (inactive)
same,GI50,RXF 393,> 100 µM (inactive)
same,GI50,DLD-1,> 100 µM (inactive)
same,GI50,NCI-H522,> 100 µM (inactive)
same,GI50,M19-MEL,> 100 µM (inactive)
same,GI50,DMS-273,> 100 µM (inactive)
same,GI50,SK-MEL-2,> 100 µM (inactive)
same,GI50,TK-10,> 100 µM (inactive)
same,GI50,SF-539,> 100 µM (inactive)
same,GI50,NCI-H226,> 100 µM (inactive)
same,GI50,SF-268,> 100 µM (inactive)
same,GI50,DMS-114,> 100 µM (inactive)
same,GI50,OVCAR-8,> 100 µM (inactive)
same,GI50,SN12C,> 100 µM (inactive)
same,GI50,ACHN,> 100 µM (inactive)
same,GI50,UACC-257,> 100 µM (inactive)
same,GI50,COLO 205,> 100 µM (inactive)
same,GI50,CCRF-CEM,> 100 µM (inactive)
same,GI50,HOP-62,> 100 µM (inactive)
same,GI50,KM12,> 100 µM (inactive)
same,GI50,RXF 631,> 100 µM (inactive)
same,GI50,SK-OV-3,> 100 µM (inactive)
same,GI50,HCT-116,> 100 µM (inactive)
same,GI50,HT-29,> 100 µM (inactive)
same,GI50,A549,> 100 µM (inactive)
same,GI50,SK-MEL-28,> 100 µM (inactive)
same,GI50,NCI-H460,> 100 µM (inactive)
COc1c(OC(C)=O)c(OC(C)=O)cc2c1-c1ccc(OC)c(=O)cc1C(NC(C)=O)CC2 (stereo not given),GI50,OVCAR-3,0.0138 µM (active)
same,GI50,U-251,0.0321 µM (active)
same,GI50,SK-MEL-5,0.0116 µM (active)
same,GI50,OVCAR-5,2.61 µM (inactive)
same,GI50,LXFL 529,< 0.01 µM (active)
same,GI50,RPMI-8226,< 0.0142 µM (active)
same,GI50,Hs-578T,< 0.01 µM (active)
same,GI50,IGROV-1,0.0254 µM (active)
same,GI50,Malme-3M,< 0.01 µM (active)
same,GI50,MOLT-4,0.0155 µM (active)
same,GI50,EKVX,8.51 µM (inactive)
same,GI50,K562,< 0.0123 µM (active)
same,GI50,LOX IMVI,< 0.0147 µM (active)
same,GI50,UACC-62,< 0.01 µM (active)
same,GI50,NCI/ADR-RES,1.6 µM (inactive)
same,GI50,HOP-92,0.0173 µM (active)
same,GI50,A498,0.0513 µM (active)
same,GI50,SNB-75,< 0.01 µM (active)
same,GI50,MDA-MB-435,< 0.01 µM (active)
same,GI50,PC-3,0.0493 µM (active)
same,GI50,KM-20L2,0.0222 µM (active)
same,GI50,MDA-MB-231,0.0129 µM (active)
same,GI50,786-0,0.027 µM (active)
same,GI50,HCT-15,0.465 µM
same,GI50,NCI-H23,0.0199 µM (active)
same,GI50,CAKI-1,0.054 µM (active)
same,GI50,MDA-N,< 0.01 µM (active)
same,GI50,M14,< 0.0125 µM (active)
same,GI50,MCF7,< 0.01 µM (active)
same,GI50,HCC 2998,0.0217 µM (active)
same,GI50,SNB-19,0.0336 µM (active)
same,GI50,SR,0.0128 µM (active)
same,GI50,SW-620,< 0.0125 µM (active)
same,GI50,HL-60,< 0.01 µM (active)
same,GI50,XF498,0.0311 µM (active)
same,GI50,SF-295,0.0424 µM (active)
same,GI50,RXF 393,< 0.01 µM (active)
same,GI50,T47D,> 100 µM (inactive)
same,GI50,DLD-1,0.0186 µM (active)
same,GI50,NCI-H522,0.0114 µM (active)
same,GI50,M19-MEL,< 0.0167 µM (active)
same,GI50,DMS-273,0.0172 µM (active)
same,GI50,SK-MEL-2,0.0186 µM (active)
same,GI50,TK-10,2.7 µM (inactive)
same,GI50,SF-539,< 0.0122 µM (active)
same,GI50,NCI-H226,0.331 µM (active)
same,GI50,SF-268,0.0218 µM (active)
same,GI50,DMS-114,< 0.0127 µM (active)
same,GI50,OVCAR-8,0.0254 µM (active)
same,GI50,SN12C,0.0348 µM (active)
same,GI50,ACHN,0.439 µM (active)
same,GI50,COLO 205,0.0171 µM (active)
same,GI50,CCRF-CEM,0.013 µM (active)
same,GI50,HOP-62,0.0635 µM (active)
same,GI50,KM12,0.0154 µM (active)
same,GI50,BT-549,> 100 µM (inactive)
same,GI50,RXF 631,0.0676 µM (active)
same,GI50,SK-OV-3,2.29 µM (inactive)
same,GI50,DU-145,0.0525 µM (active)
same,GI50,OVCAR-4,31.9 µM (inactive)
same,GI50,HCT-116,0.0215 µM (active)
same,GI50,UO-31,4.86 µM (inactive)
same,GI50,HT-29,0.0198 µM (active)
same,GI50,A549,0.209 µM (active)
same,GI50,SNB-78,< 0.01 µM (active)
same,GI50,SK-MEL-28,< 0.0363 µM (active)
same,GI50,NCI-H460,0.0451 µM (active)
